Our source for the EC50, IC50 and outcome values is PubChem BioAssay AID179 (DTP/NCI, 2004).

This assay deals with CEM cells HIV-1 protection, formazan growth assay. In words: NCI AIDS Antiviral Assay. To be noted: for IC50: measured here: growth of uninfected CEM cells. In outline: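 Five concentrations of each compound were applied to infected and uninfected human CEM cells. Protection from HIV-1 was judged from growth measured with a soluble formazan assay.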

Activity calls are given as the source filed them.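 Rule for the calls: active = compounds giving half or more protection of infected cells from virus-caused growth loss, again on retest; inactive = the rest.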

Take `CCN1CCC(O)(c2ccc(Cl)c(Cl)c2)C(C(=O)c2ccc(Cl)c(Cl)c2)C1` (stereo unspecified): the EC50 was > 67.6 µM and the IC50 came to 38.9 µM.
On to `N#C/C(=C(/c1ccccc1)c1ccccn1)c1ccc(Cl)cc1`, for which the EC50 was > 2 µM and the IC50 turned out to be 1 µM.
Turning to `COc1ccc2c(C(=O)O)cc3ccccc3c2c1OC`, the outcome was inactive.
As for `CO[C@@H]1C[C@H]2[C@@H]3CC[C@H]([C@H](C)COC(C)=O)[C@@]3(C)CC[C@@H]2[C@@]2(C)CC[C@H]3C[C@]312`, the EC50 was > 100 µM and the IC50 is > 100 µM.
As to `CCOC(=O)c1cc2nc3ccccc3c(=O)n2c2ccccc12`, the EC50 is > 200 µM and the IC50 was > 200 µM.
As for `NC1=NS(=O)(=O)N=C(N)C1=NNc1ccccc1`, the EC50 is > 933 µM and the IC50 was found to be 141 µM.
As to `CN(C)c1ccc(NN=C2SC(=Nc3ccccc3)C(=Nc3ccccc3)S2)cc1`, the EC50 is > 200 µM and the IC50 turned out to be 8.13 µM.
Regarding `COc1ccc(NC(=S)N=Nc2c(O)[nH]c3ccccc23)cc1`, the EC50 is > 200 µM.
Turning to `COC1=CC(=O)C(=O)c2c(C)ccnc21`, the result was inactive.
Regarding `O=CCc1c2c(nc3ccccc13)C(=O)c1ccccc1C2=O`, the EC50 was > 20 µM and the IC50 turned out to be 7.94 µM.
Take `CCOC(=O)c1cc2c3c(c(O)c(OC)c2s1)N(C(=O)c1cc2c4c(c(OC)c(OC)c2s1)N(C(=O)OC(C)(C)C(Cl)(Cl)Cl)CC4)CC3`: the outcome was inactive.
As to `COc1ccc2c(c1)C(=O)CC(C(=O)O)C2` (stereo unspecified), the EC50 was > 1120 µM and the IC50 is > 1120 µM.
On to `CCOc1ccc(N=Nc2ccc3oc(=O)c(/C(C)=N/NC(=O)CC(=O)Nc4cccc(OC)c4)cc3c2)cc1`, for which the EC50 is > 13.2 µM and the concentration for half-maximal inhibition (IC50) is > 13.2 µM.
As for `CC(=O)N/N=C(\C=C\c1ccccc1)c1ccccc1OC(C)=O`, the EC50 is > 200 µM and the IC50 is 107 µM.
In the case of `S=C1NNC2(C(=S)N1)c1ccccc1-c1ccccc12`, the EC50 was > 200 µM and the IC50 was found to be 87.1 µM.
Turning to `CCOC(=O)Nc1ccc2c(c1)/C(=N\NC(N)=S)c1ccccc1-2`, the EC50 was > 200 µM and the IC50 came to 3.39 µM.
Take `CC(=O)Nc1ccc(C(=O)NN2C(=O)C(Cl)C2c2cc(Br)cc(Br)c2O)cc1` (stereo unspecified): the outcome was inactive.
As to `CCOC(=O)C1C(c2ccc(Cl)cc2Cl)NC(c2ccc(C)cc2)C(C(=O)OC)S1(=O)=O` (stereo unspecified), the EC50 was > 14.5 µM and the IC50 was > 14.5 µM.
Take `NC(CSS(=O)(=O)CC(N)C(=O)O)C(=O)O` (stereo unspecified): the outcome was inactive and the IC50 was 63.1 µM.
As for `CC(=O)N(C(C)=O)c1ccc(-c2cccs2)oc1=O`, the EC50 is > 200 µM and the IC50 is > 200 µM.
Consider `CCCCN(CCCC)C1CCC(Nc2ccnc3cc(Cl)ccc23)CC1` (stereo unspecified), for which the EC50 is > 200 µM and the IC50 was determined as 25.7 µM.
As for `O=C(N[C@H](CO)[C@H](O)c1ccc([N+](=O)[O-])cc1)C(Cl)Cl`, the EC50 was > 200 µM and the IC50 is > 200 µM.
With `O=NC1C2C=CC(C2)C1Cl` (stereo unspecified), the EC50 is > 200 µM and the IC50 was > 200 µM.
Take `COc1ccc2c(c1)c(=O)c(C(=O)O)cn2CCCOc1ccc([N+](=O)[O-])cc1`: the outcome was inactive.
`Cc1cccc(NC(=O)CSc2nnc(-c3ccc(N=Cc4ccc(Cl)cc4)cc3)o2)c1`: the EC50 was > 21.4 µM and the IC50 is > 21.4 µM.
Consider `N#Cc1c(N)nc2c(c(-c3ccc(Cl)cc3)nn2-c2ccccc2)c1C#N`, for which the EC50 was > 200 µM and the concentration for half-maximal inhibition (IC50) was > 200 µM.
Consider `CCN(C(=O)c1ccc([N+](=O)[O-])cc1)C(c1ccccc1)P(=O)(c1ccccc1)c1ccccc1` (stereo unspecified), for which the result was inactive.
Turning to `O=[N+]([O-])c1cccc2nccc(NCCCO)c12`, the EC50 was > 200 µM and the IC50 was determined as 6.92 µM.
For `CN(C)C(=O)OC(Cn1cncn1)(Cn1cncn1)c1ccc(Cl)cc1Cl` the same measures were > 200 µM and > 200 µM.
